{"source": "patent US20230203081A1", "about": "“LINCOSAMIDE ANTIBIOTICS AND USES THEREOF” (President and Fellows of Harvard College, priority 2020, published 2023)", "tested_on": "broad panel of different clinical isolates", "assay": "microbe, parasite or virus in culture", "assay_type": "cell-based", "outline": "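Per CLSI, MICs by broth microdilution or agar dilution; strains other than streptococci and anaerobes were sub-cultured overnight at 35° C on blood agar, with a final broth inoculum of 5×10^5 CFU/mL.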", "data": [{"smiles": "CC(=O)NC[C@H]1CN(c2ccc(N3CCOCC3)c(F)c2)C(=O)O1", "note": "[Linezolid]", "values": [{"measurement": "MIC", "setting": "Acinetobacter baumannii, A. baumannii HAV#651, Clinical", "value": 16, "unit": "µg/mL"}, {"measurement": "MIC", "setting": "Acinetobacter baumannii, A. baumannii HAV#652 Clinical", "value": 32, "unit": "µg/mL"}, {"measurement": "MIC", "setting": "Acinetobacter baumannii, A. baumannii HAV#653, Clinical", "value": 32, "unit": "µg/mL"}, {"measurement": "MIC", "setting": "Acinetobacter baumannii, A. baumannii HAV#654, Clinical", "value": 32, "unit": "µg/mL"}, {"measurement": "MIC", "setting": "Acinetobacter baumannii, A. baumannii HAV#655, Clinical", "value": 128, "unit": "µg/mL"}, {"measurement": "MIC", "setting": "Acinetobacter baumannii, A. baumannii HAV#656, Clinical", "value": 64, "unit": "µg/mL"}, {"measurement": "MIC", "setting": "Acinetobacter baumannii, A. baumannii HAV#657, Clinical", "value": 64, "unit": "µg/mL"}, {"measurement": "MIC", "setting": "Acinetobacter baumannii, A. baumannii HAV#658, Clinical", "value": 64, "unit": "µg/mL"}, {"measurement": "MIC", "setting": "Acinetobacter baumannii, A. baumannii HAV#659, Clinical", "value": 64, "unit": "µg/mL"}, {"measurement": "MIC", "setting": "Acinetobacter baumannii, A. baumannii HAV#660, Clinical", "value": 64, "unit": "µg/mL"}, {"measurement": "MIC", "setting": "Acinetobacter baumannii, A. baumannii HAV#661, Clinical", "value": 32, "unit": "µg/mL"}, {"measurement": "MIC", "setting": "Acinetobacter baumannii, A. baumannii HAV#662, Clinical", "value": 64, "unit": "µg/mL"}, {"measurement": "MIC", "setting": "Acinetobacter baumannii, A. baumannii HAV#663, Clinical", "value": 32, "unit": "µg/mL"}, {"measurement": "MIC", "setting": "Acinetobacter baumannii, A. baumannii HAV#664, Carbapenem R", "value": 64, "unit": "µg/mL"}, {"measurement": "MIC", "setting": "Enterococcus faecalis, E. faecalis HAV#602, Clincal", "value": 4, "unit": "µg/mL"}, {"measurement": "MIC", "setting": "Enterococcus faecalis, E. faecalis HAV#607, Clinical", "value": 16, "unit": "µg/mL"}, {"measurement": "MIC", "setting": "Enterococcus faecalis, E. faecalis HAV#609, Clinical", "value": 4, "unit": "µg/mL"}, {"measurement": "MIC", "setting": "Enterococcus faecalis, S. faecalis 5060, Line R & Vanco R", "value": 8, "unit": "µg/mL"}, {"measurement": "MIC", "setting": "Enterococcus faecalis, S. faecalis 5074, Line R", "value": 8, "unit": "µg/mL"}, {"measurement": "MIC", "setting": "Enterococcus faecalis, VRE, E. faecalis HAV#251, Clinical VRE", "value": 2, "unit": "µg/mL"}, {"measurement": "MIC", "setting": "Enterococcus faecalis, VRE, E. faecalis HAV#606, Clinical", "value": 2, "unit": "µg/mL"}, {"measurement": "MIC", "setting": "Enterococcus faecium, E. faecium HAV#317, Clinical", "value": 2, "unit": "µg/mL"}, {"measurement": "MIC", "setting": "Enterococcus faecium, E. faecium HAV#324, Clinical", "value": 4, "unit": "µg/mL"}, {"measurement": "MIC", "setting": "Enterococcus faecium, E. faecium HAV#327, Clinical", "value": 4, "unit": "µg/mL"}, {"measurement": "MIC", "setting": "Enterococcus faecium, E. faecium HAV#329, Clinical", "value": 4, "unit": "µg/mL"}, {"measurement": "MIC", "setting": "Enterococcus faecium, VRE, E. faecium HAV#318, VanA", "value": 4, "unit": "µg/mL"}, {"measurement": "MIC", "setting": "Enterococcus faecium, VRE, E. faecium HAV#319, Line R & Vanco R", "value": 64, "unit": "µg/mL"}, {"measurement": "MIC", "setting": "Enterococcus faecium, VRE, E. faecium HAV#320, Clinical", "value": 2, "unit": "µg/mL"}, {"measurement": "MIC", "setting": "Escherichia coli, E. coli HAV#503, Clinical", "value": 128, "unit": "µg/mL"}, {"measurement": "MIC", "setting": "Escherichia coli, E. coli HAV#511, Clinical", "value": 32, "unit": "µg/mL"}, {"measurement": "MIC", "setting": "Escherichia coli, E. coli HAV#512, Clinical", "value": 32, "unit": "µg/mL"}, {"measurement": "MIC", "setting": "Escherichia coli, E. coli HAV#513, Clinical", "value": 32, "unit": "µg/mL"}, {"measurement": "MIC", "setting": "Escherichia coli, E. coli HAV#514, Clinical", "value": 32, "unit": "µg/mL"}, {"measurement": "MIC", "setting": "Escherichia coli, E. coli HAV#516, ESBL-producing", "value": 64, "unit": "µg/mL"}, {"measurement": "MIC", "setting": "Haemophilus influenzae, ATCC9007, H. influenzae HAV#376, ATCC-9007", "value": 4, "unit": "µg/mL"}, {"measurement": "MIC", "setting": "Klebsiella pneumoniae, K. pneumoniae HAV#404, Clinical", "value": 32, "unit": "µg/mL"}, {"measurement": "MIC", "setting": "Klebsiella pneumoniae, K. pneumoniae HAV#405, Clinical", "value": 32, "unit": "µg/mL"}, {"measurement": "MIC", "setting": "Klebsiella pneumoniae, K. pneumoniae HAV#406, Clinical", "value": 32, "unit": "µg/mL"}, {"measurement": "MIC", "setting": "Klebsiella pneumoniae, K. pneumoniae HAV#407, Clinical", "value": 32, "unit": "µg/mL"}, {"measurement": "MIC", "setting": "Klebsiella pneumoniae, K. pneumoniae HAV#408, Clinical", "value": 32, "unit": "µg/mL"}, {"measurement": "MIC", "setting": "Klebsiella pneumoniae, K. pneumoniae HAV#409, ESBL-producing", "value": 64, "unit": "µg/mL"}, {"measurement": "MIC", "setting": "Staphylococcus aureus, MRSA, S. aureus HAV#0107, MRSA Col(Colindale, England)", "value": 2, "unit": "µg/mL"}, {"measurement": "MIC", "setting": "Staphylococcus aureus, MRSA, S. aureus HAV#218, Line R", "value": 8, "unit": "µg/mL"}, {"measurement": "MIC", "setting": "Staphylococcus aureus, MRSA, S. aureus HAV#220, Line R", "value": 32, "unit": "µg/mL"}, {"measurement": "MIC", "setting": "Staphylococcus aureus, MSSA, S. aureus HAV#219, Line R", "value": 32, "unit": "µg/mL"}, {"measurement": "MIC", "setting": "Staphylococcus aureus, S. aureus HAV#051, mecA, norA, spcl, ermA, aad1, aac6′-aph2″", "value": 4, "unit": "µg/mL"}, {"measurement": "MIC", "setting": "Staphylococcus aureus, S. aureus HAV#052, mecA, norA, fosB, blaZ", "value": 4, "unit": "µg/mL"}, {"measurement": "MIC", "setting": "Staphylococcus aureus, S. aureus HAV#053 mecA, norA, fosB", "value": 4, "unit": "µg/mL"}, {"measurement": "MIC", "setting": "Staphylococcus aureus, S. aureus HAV#054, mecA, norA, spcl, aad1, fosB, ermA, aac6′-aph2″, blaZ", "value": 1, "unit": "µg/mL"}, {"measurement": "MIC", "setting": "Staphylococcus aureus, S. aureus HAV#211, Clinical", "value": 4, "unit": "µg/mL"}, {"measurement": "MIC", "setting": "Staphylococcus aureus, S. aureus HAV#212, Clinical", "value": 4, "unit": "µg/mL"}, {"measurement": "MIC", "setting": "Staphylococcus aureus, S. aureus HAV#214, Clinical", "value": 4, "unit": "µg/mL"}, {"measurement": "MIC", "setting": "Staphylococcus aureus, S. aureus HAV#216, Clinical, cfr", "value": 16, "unit": "µg/mL"}, {"measurement": "MIC", "setting": "Staphylococcus aureus, S. aureus HAV#217, cfr", "value": 64, "unit": "µg/mL"}, {"measurement": "MIC", "setting": "Staphylococcus aureus, VISA, S. aureus HAV#203, Clinical (VISA)", "value": 2, "unit": "µg/mL"}, {"measurement": "MIC", "setting": "Staphylococcus epidermidis, S. epidermidis HAV# 275 Clinical, cfr", "value": "> 64", "unit": "µg/mL"}, {"measurement": "MIC", "setting": "Staphylococcus epidermidis, S. epidermidis HAV# 276, cfr", "value": "> 64", "unit": "µg/mL"}, {"measurement": "MIC", "setting": "Staphylococcus epidermidis, S. epidermidis HAV#277, Line R", "value": "> 128", "unit": "µg/mL"}, {"measurement": "MIC", "setting": "Staphylococcus epidermidis, S. epidermidis HAV#278 Line R", "value": 64, "unit": "µg/mL"}, {"measurement": "MIC", "setting": "Staphylococcus epidermidis, S. epidermidis HAV#279, Line R", "value": 4, "unit": "µg/mL"}, {"measurement": "MIC", "setting": "Staphylococcus haemolyticus, S. haemolyticus 5052, Line R & Methicillin R", "value": 64, "unit": "µg/mL"}, {"measurement": "MIC", "setting": "Streptococcus pneumoniae, ATCC700673, S. pneumoniae HAV#352, ATCC 700673, MDR", "value": 4, "unit": "µg/mL"}, {"measurement": "MIC", "setting": "Streptococcus pneumoniae, ATCCBAA255, S. pneumoniae HAV#354, ATCC-BAA-255", "value": 4, "unit": "µg/mL"}, {"measurement": "MIC", "setting": "Streptococcus pneumoniae, ATCCBAA334, S. pneumoniae HAV#353, ATCC-BAA-334", "value": 4, "unit": "µg/mL"}, {"measurement": "MIC", "setting": "Streptococcus pneumoniae, S. pneumoniae HAV#356, Clinical", "value": 4, "unit": "µg/mL"}, {"measurement": "MIC", "setting": "Streptococcus pneumoniae, S. pneumoniae HAV#358, Clinical", "value": 4, "unit": "µg/mL"}]}]}
